{"source": "patent US6630331B1", "about": "“Herbicides test method” (Hoechst Schering AgrEvo GmbH, priority 1997, dated 2003)", "molecules": {"B1": {"name": "recombinant Lotus pantothenate synthetase (Lotus japonicus) (protein)", "chain": "PMVISDKDEMRKWSRSMRSQGKLIALVPTMGFLHEGHLSLVRDAHNHADLVAVSIYVNPGQFSPTEDLSAYPSDFQGDLQKLMSVPGGVDVVFHPHNLYDYGGDGGDAVAECGGDGVVSCVDRRSGFGHETWVRAEKLEKPLCGKSRPVFFRGVATIVTKLFNIVEPDVAVFGKKDYQQWKIIQRMVRDLDFSIKVIGSEVIREKDGLAMSSRNVYLSPEEREKAVSINKSLFRAKSAAEDGQIHCEKLINLVVQSITEAGGRIDYAEIVDQNNLEKVEWIKGPVVFCVSAWFGKARLIDNIEINL"}}, "key": {"[1]": {"biological_target": "T1, recombinant Lotus pantothenate synthetase (Lotus japonicus, UniProt O24035)", "assay": "Steady state kinetics of recombinant Lotus pantothenate synthetase", "procedure": "(§1) 2. The preferred assay mixture to measure the pyrophosphate liberated in the PS reaction after its conversion with inorganic pyrophosphatase to inorganic phosphate comprises 100 μmol Tris.HCl (pH 8.0), 10 μmol MgSO4, 5 μmol ATP, 10 μmol […], 0.5 μmol pantoate, 1.0 unit yeast inorganic pyrophosphatase and pantothenate synthetase in a total volume of 100 μl. After a suitable incubation period the PS reaction is terminated either\n(§2) a) by the addition of 100 μlof a reagent mixture comprising 62.3 µg malachite green hydrochloride, 1.9 mg ammoniumheptamolybdate and 0.5% (v/v) of a suitable detergent (for example Triton X-100, Tween-80 or Tergitol NPX) in 1.88 N hydrochloric acid. The resulting colour complex is stabilised by the addition after 1 minute of 50 μl of a 26% (w/v) solution of trisodium citrate dihydrate in water and after an additional 45 minutes incubation at room temperature the intensity of the colour complex is determined by measuring the extinction at 620 nm. The amount of inorganic phosphate liberated in the PS reaction is determined by reference to a standard curve generated from suitable amounts of inorganic phosphate by using the difference of extinction at 620 nm between a complete PS assay mixture and a PS assay mixture lacking pantoate. Since there are 2 molecules of inorganic phosphate liberated for every molecule of pyrophosphate formed in the PS reaction, one unit of PS activity is defined as the amount of enzyme producing 2 nmoles of inorganic phosphate per minute, and specific activity is expressed as units per milligram of protein; or\nKm and Vmax constants for pantoate and […] were determined by measuring the effect of substrate concentration on the reaction rate."}, "[2]": {"biological_target": "T1, recombinant Lotus pantothenate synthetase", "assay": "Activity of recombinant Lotus pantothenate synthetase in the presence of potential effectors", "format": "biochemical", "parameters": "the processed recombinant protein (3-proline through 308-leucine) has a theoretical mass of 34,037.7 Da; made in house; host or cells: E. coli AT1371 (panC) transformed with pSKL", "details": "for Final activity [%]: effector 1 mM, pantoate 0.1 mM, β-alanine 1.0 mM, % of activity without effector", "procedure": "as §1, with “[…],” for “0.5 μmol pantoate,”, “yeast inorganic pyrophosphatase and pantothenate synthetase in a total volume of 100 μl.” left out\nas §2\nAmong these compounds are the intermediates of pantothenate biosynthesis as well as coenzyme A. As coenzyme A plays a prominent role in fatty acid synthesis and degradation, various acyl forms of coenzyme A and free fatty acids were also included. […] Table 7 lists the compounds tried and their effect on PS activity which is expressed percentage of activity in an assay without additions."}, "[3]": {"biological_target": "T2, recombinant L. japonicus pantothenate synthetase (Lotus japonicus, UniProt O24035)", "T2 construct": "the processed recombinant protein (3-proline through 308-leucine) has a theoretical mass of 34,037.7 Da; made in house; host or cells: E. coli AT1371 (panC) transformed with pSKL", "T2 sequence (O24035 3-308)": "B1 chain", "assay": "Substrate specificity of recombinant L. japonicus pantothenate synthetase", "format": "biochemical", "details": "for yield (%): relative to standard assay; for inhibition: analogue at 10-fold excess over pantoate", "procedure": "as §1\nas §2, with “protein; or […]” for “protein; or”"}, "purified E. coli PS": {"biological_target": "purified E. coli PS (Escherichia coli, UniProt P31663)", "sequence (P31663 whole entry)": "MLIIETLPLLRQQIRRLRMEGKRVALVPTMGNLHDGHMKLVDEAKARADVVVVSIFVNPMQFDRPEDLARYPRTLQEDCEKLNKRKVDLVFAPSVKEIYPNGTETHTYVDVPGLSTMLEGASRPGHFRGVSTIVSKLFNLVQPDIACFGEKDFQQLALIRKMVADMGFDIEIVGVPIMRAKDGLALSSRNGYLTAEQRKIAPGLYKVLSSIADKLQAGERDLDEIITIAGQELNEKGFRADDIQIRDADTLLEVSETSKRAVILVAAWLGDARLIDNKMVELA", "details": "cited from earlier work"}, "[4]": {"substrate": "CC(C)(CO)[C@@H](O)C(=O)O", "assay": "purified protein, by the assay type", "details": "pH 8.0", "description": "Km and Vmax constants for pantoate and ⊖-alanine were determined by measuring the effect of substrate concentration on the reaction rate."}, "[5]": {"substrate": "NCCC(=O)O", "assay": "purified protein, by the assay type", "details": "pantoate at 0.5 mM const., pH 8.0"}, "[6]": {"details": "analogue 1.0 mM added to pantoate 0.1 mM and β-alanine 1 mM"}, "[7]": {"details": "analogue 1.0 mM in place of pantoate, β-alanine 1 mM"}, "[8]": {"details": "analogue 10 mM in place of pantoate, β-alanine 1 mM"}, "[9]": {"details": "other: Eadie-Hofstee (EH), β-alanine at 20 mM const."}, "[10]": {"details": "other: Lineweaver-Burk (LB), β-alanine at 20 mM const."}, "[11]": {"details": "other: fit of rate equation for uncompetitive substrate inhibition"}}}
{"molecule": "CC(C)(CO)[C@@H](O)C(=O)O", "note": "[Pantoate, (R)-pantoate]", "values": [{"measurement": "optimal pantoate concentration", "setting": "[1]; calculated from rate equation with fitted KS and K′S", "result": "470 ± 30", "unit": "µM"}, {"measurement": "K′S", "setting": "[1]; fit of rate equation for uncompetitive substrate inhibition", "result": "5.33 ± 0.34", "unit": "mM"}, {"measurement": "kcat", "setting": "[1]; from Vmax of the uncompetitive substrate inhibition fit", "result": "0.625 ± 0.011", "unit": "s⁻¹"}, {"measurement": "pantoate concentration at which substrate inhibition becomes significant", "setting": "[1]; substrate inhibition of Lotus PS", "result": "≥ 400", "unit": "µM"}]}
{"molecule": "CCCCCCCC/C=C\\CCCCCCCC(=O)SCCNC(=O)CCNC(=O)[C@H](O)C(C)(C)COP(=O)(O)OP(=O)(O)OC[C@H]1O[C@@H](n2cnc3c(N)ncnc32)[C@H](O)[C@@H]1OP(=O)(O)O", "note": "[Oleoyl-coA]", "values": [{"measurement": "activity at 24 µM", "setting": "[2]; read-out: Final activity [%]", "result": 108, "unit": "%"}]}
{"molecule": "CCCCCCCCCCCCCCCC(=O)O", "note": "[Palmitic acid]", "values": [{"measurement": "activity at 2 µM", "setting": "[2]; read-out: Final activity [%]", "result": 133, "unit": "%"}, {"measurement": "activity at 15 µM", "setting": "[2]; read-out: Final activity [%]", "result": 135, "unit": "%"}, {"measurement": "activity at 60 µM", "setting": "[2]; read-out: Final activity [%]", "result": 115, "unit": "%"}]}
{"molecule": "CCCCCC/C=C\\CCCCCCCC(=O)SCCNC(=O)CCNC(=O)[C@H](O)C(C)(C)COP(=O)(O)OP(=O)(O)OC[C@H]1O[C@@H](n2cnc3c(N)ncnc32)[C@H](O)[C@@H]1OP(=O)(O)O", "note": "[Palmitoleoyl-coA]", "values": [{"measurement": "activity at 22 µM", "setting": "[2]; read-out: Final activity [%]", "result": 114, "unit": "%"}]}
{"molecule": "O=P(O)(O)OP(=O)(O)O", "note": "[Pyrophosphate]", "values": [{"measurement": "Final activity [%]", "setting": "[2]", "result": 78, "unit": "%"}]}
{"molecule": "CC(C)C(=O)C(=O)O", "note": "[a-KIVA]", "values": [{"measurement": "Final activity [%]", "setting": "[2]", "result": 89, "unit": "%"}]}
{"molecule": "CC(C)(COP(=O)(O)OP(=O)(O)OC[C@H]1O[C@@H](n2cnc3c(N)ncnc32)[C@H](O)[C@@H]1OP(=O)(O)O)[C@@H](O)C(=O)NCCC(=O)NCCSC(=O)CC(=O)O", "note": "[Malonyl-coA]", "values": [{"measurement": "activity at 100 µM", "setting": "[2]; read-out: Final activity [%]", "result": 92, "unit": "%"}]}
{"molecule": "CC(C)(COP(=O)(O)OP(=O)(O)OC[C@H]1O[C@@H](n2cnc3c(N)ncnc32)[C@H](O)[C@@H]1OP(=O)(O)O)[C@@H](O)C(=O)NCCC(=O)NCCS", "note": "[CoenzymeA]", "values": [{"measurement": "activity at 100 µM", "setting": "[2]; read-out: Final activity [%]", "result": 100, "unit": "%"}, {"measurement": "activity at 200 µM", "setting": "[2]; read-out: Final activity [%]", "result": 106, "unit": "%"}, {"measurement": "activity at 1000 µM", "setting": "[2]; read-out: Final activity [%]", "result": 109, "unit": "%"}]}
{"molecule": "CC(=O)SCCNC(=O)CCNC(=O)[C@H](O)C(C)(C)COP(=O)(O)OP(=O)(O)OC[C@H]1O[C@@H](n2cnc3c(N)ncnc32)[C@H](O)[C@@H]1OP(=O)(O)O", "note": "[Acetyl-coA]", "values": [{"measurement": "activity at 100 µM", "setting": "[2]; read-out: Final activity [%]", "result": 93, "unit": "%"}]}
{"molecule": "CCCCCC/C=C\\CCCCCCCC(=O)O", "note": "[Palmitoleic acid]", "values": [{"measurement": "activity at 20 µM", "setting": "[2]; read-out: Final activity [%]", "result": 116, "unit": "%"}, {"measurement": "activity at 100 µM", "setting": "[2]; read-out: Final activity [%]", "result": 100, "unit": "%"}]}
{"molecule": "CC(C)(CO)[C@@H](O)C(=O)NCCC(=O)O", "note": "[Pantothenate]", "values": [{"measurement": "activity at 1000 µM", "setting": "[2]; read-out: Final activity [%]", "result": 98, "unit": "%"}]}
{"molecule": "CC(C)(CO)C(=O)C(=O)O", "note": "[Ketopantoate, ketopantoate]", "values": [{"measurement": "activity as substrate in the place of pantoate", "setting": "[3]", "result": "not active as substrates"}, {"measurement": "activity (units)", "setting": "[3]; [6]", "result": 12.18, "unit": "units"}, {"measurement": "yield (%)", "setting": "[3]; [6]", "result": 97, "unit": "%"}, {"measurement": "activity (units)", "setting": "[3]; [7]", "result": 0, "unit": "units"}, {"measurement": "yield (%)", "setting": "[3]; [7]", "result": 0, "unit": "%"}, {"measurement": "activity (units)", "setting": "[3]; [8]", "result": 0, "unit": "units"}, {"measurement": "yield (%)", "setting": "[3]; [8]", "result": 0, "unit": "%"}, {"measurement": "inhibition", "setting": "[3]", "result": "did not effect significant inhibition"}, {"measurement": "Final activity [%]", "setting": "[2]", "result": 97, "unit": "%"}]}
{"molecule": "CC1(C)COC(=O)[C@@H]1O", "note": "[Pantoyl-lactone, pantoyl-lactone]", "values": [{"measurement": "activity as substrate in the place of pantoate", "setting": "[3]", "result": "not active as substrates"}, {"measurement": "activity (units)", "setting": "[3]; [6]", "result": 11.53, "unit": "units"}, {"measurement": "yield (%)", "setting": "[3]; [6]", "result": 92, "unit": "%"}, {"measurement": "activity (units)", "setting": "[3]; [7]", "result": "<0.1", "unit": "units"}, {"measurement": "yield (%)", "setting": "[3]; [7]", "result": "<1", "unit": "%"}, {"measurement": "activity (units)", "setting": "[3]; [8]", "result": 0.15, "unit": "units"}, {"measurement": "yield (%)", "setting": "[3]; [8]", "result": 1, "unit": "%"}, {"measurement": "inhibition", "setting": "[3]", "result": "did not effect significant inhibition"}, {"measurement": "activity toward pantoyl-lactone", "setting": "purified E. coli PS", "result": "no activity"}, {"measurement": "Final activity [%]", "setting": "[2]", "result": 92, "unit": "%"}]}
{"molecule": "B1", "values": [{"measurement": "Km", "setting": "[4]; [9]", "result": "44 (EH) μM"}, {"measurement": "Vmax", "setting": "[4]; [9]", "result": "10.98 (EH)"}, {"measurement": "Km", "setting": "[4]; [10]", "result": "45 (LB) μM"}, {"measurement": "Vmax", "setting": "[4]; [10]", "result": "11.36 (LB)"}, {"measurement": "kcat", "setting": "[4]; [10]", "result": 0.63, "unit": "s⁻¹"}, {"measurement": "Km", "setting": "[4]; [11]", "result": "42 ± 2", "unit": "µM"}, {"measurement": "Vmax", "setting": "[4]; [11]", "result": "11.03±0.19", "unit": "units"}, {"measurement": "Km", "setting": "[5]; other: Eadie-Hofstee (EH)", "result": "986 (EH) μM"}, {"measurement": "Vmax", "setting": "[5]; other: Eadie-Hofstee (EH)", "result": "9.51 (EH)"}, {"measurement": "Km", "setting": "[5]; other: Lineweaver-Burk (LB)", "result": "990 (LB) μM"}, {"measurement": "Vmax", "setting": "[5]; other: Lineweaver-Burk (LB)", "result": "9.52 (LB)"}, {"measurement": "kcat", "setting": "[5]; other: Lineweaver-Burk (LB)", "result": 0.54, "unit": "s⁻¹"}]}
